pKi: −log10 of the molar value. Read-outs that look alike come from different tables or passages of the source.
Columns and labels:
μ opioid receptor = biological target: T1, μ opioid receptor (Homo sapiens, UniProt P35372); assay: Radioligand displacement, μ; format: binding; details: binding curve File S1, Mu Opiod Receptor, [3H]DAMGO (0.3 nM), Standard Binding Buffer, read-out: Ki
T1 construct: expressed in transfected cells

mice = details: cited from earlier work
[1] = Caco-2 cell monolayer permeation; details: human, Caco-2, pH 7.4

T1 sequence (P35372 whole entry): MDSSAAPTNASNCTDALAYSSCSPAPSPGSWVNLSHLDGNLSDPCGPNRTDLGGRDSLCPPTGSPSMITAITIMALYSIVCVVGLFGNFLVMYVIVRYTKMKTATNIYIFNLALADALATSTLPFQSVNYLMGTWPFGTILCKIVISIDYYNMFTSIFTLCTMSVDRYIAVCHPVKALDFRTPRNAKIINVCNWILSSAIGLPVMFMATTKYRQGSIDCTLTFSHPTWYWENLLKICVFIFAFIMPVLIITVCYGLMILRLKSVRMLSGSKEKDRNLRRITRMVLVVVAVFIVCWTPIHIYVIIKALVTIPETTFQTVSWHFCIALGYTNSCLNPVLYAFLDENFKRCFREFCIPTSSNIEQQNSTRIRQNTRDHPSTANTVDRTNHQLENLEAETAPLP

DAM80: reference ligand of the mu opioid binding curve
pKi (μ opioid receptor; listed as DAM30): 9.39 | pKi (μ opioid receptor): 9.27

O=C1CC[C@@]2(O)[C@H]3Cc4ccc(O)c5c4[C@@]2(CCN3CC2CC2)[C@H]1O5 [Naltrexone]
LD50 (mice; mice, s.c.): 570 mg/kg | Papp A→B at 120 min [1]: 59 ×10⁻⁶ cm/s | Papp B→A at 120 min [1]: 270 ×10⁻⁶ cm/s | efflux ratio at 120 min [1]: 5.7

NCc1ccc2[nH]c3c(c2c1)CC1(O)C2Cc4ccc(O)c5c4C1(CCN2CC1CC1)C3O5 (stereo not shown) [5′-aminomethylnaltrindole]
toxic signs (mice; 20 mg/kg i.p.): gasping and convulsions
